These results are taken from patent US8288387B2, “Napthalimide-benzimidazole hybrids as potential antitumor agents and process for the preparation thereof” (Council of Scientific & Industrial Research, priority 2008, dated 2012).

Broadly, the GI50 is the concentration at which growth is held to half of that of the control. Higher therefore signals lower sensitivity of the cells.

Test [1] relates to T-47D. As to the kind of experiment: In vitro one dose primary anticancer assay, T-47D. The following applies: Breast (T-47D), 10^−5 Molar concentration. In kind it is cell-based, human. As for the experimental part:
(§1) Anticancer activity: In vitro biological activity studies were carried out at the National Cancer Institute (USA).
(§2) The compounds 5a-b evaluated for in vitro anticancer activity against sixty human tumour cells derived from nine cancer types (leukemia, non-small-cell lung, colon, CNS, melanoma, ovarian, prostate, and breast cancer) as shown in Table 1. For each compound, dose response curves for each cell line were measured at a minimum of five concentrations at 10 fold dilutions. A protocol of 48 h continuous drug exposure was used and a sulforhodamine B (SRB) protein assay was used to estimate cell viability or growth. The concentration causing 50% cell growth inhibition (GI50), total cell growth inhibition (TGI 0% growth) and 50% cell death (LC50, −50% growth) compared with the control was calculated. […] The MG MID of log TGI and log LC50 have shown similar pattern to the log GI50 MG MID. The other compounds 9a-c evaluated for in vitro one dose anticancer activity against nine human tumor cell panels containing sixty cell lines in percent growth inhibition values are listed in Table 3.

Another test concerns OVCAR8. As to the kind of experiment: In vitro one dose primary anticancer assay, OVCAR8. Format: cell-based, human. The following applies: Ovarian (OVCAR8), 10^−5 Molar concentration. On the procedure:
as §1, §2

Another test concerns HL-60. In words: In vitro one dose primary anticancer assay, HL-60. Format: cell-based, human. Particulars: Leukemia (HL-60), 10^−5 Molar concentration. On the procedure:
as §1, §2

A further test deals with UO-31. In words: In vitro one dose primary anticancer assay, UO-31. Format: cell-based, human. Particulars: Renal (UO-31), 10^−5 Molar concentration. On the procedure:
as §1, §2

Another test relates to SF-295. In words: In vitro one dose primary anticancer assay, SF-295. Format: cell-based, human. Particulars: CNS (SF-295), 10^−5 Molar concentration. As for the experimental part: as §1, §2
The test system of a further test is K-562. As to the kind of experiment: NCI in vitro anticancer SRB assay, K-562. Format: cell-based, human. The following applies: K-562, Leukemia. As for the experimental part:
as §1, §2
For orientation: Sulforhodamine B stains cellular protein and so reports cell mass.

The next test relates to EKVX. As to the kind of experiment: NCI in vitro anticancer SRB assay, EKVX. In kind it is cell-based, human. Particulars: Non-Small Cell Lung Cancer. As for the experimental part:
as §1, §2

A further test has as its system NCI-H322M. In words: NCI in vitro anticancer SRB assay, NCI-H322M. Particulars: Non-Small Cell Lung Cancer. In kind it is cell-based, human. As for the experimental part:
as §1, §2

The subject of another test is HCT-116. As to the kind of experiment: NCI in vitro anticancer SRB assay, HCT-116. In kind it is cell-based, human. The following applies: HCT-116, Colon Cancer; 48 h drug exposure, SRB. On the procedure: as §1, §2
The test system of a further test is KM12. As to the kind of experiment: NCI in vitro anticancer SRB assay, KM12. In kind it is cell-based, human. The following applies: KM12, Colon Cancer. On the procedure: as §1, §2
The next test relates to SW-620. As to the kind of experiment: NCI in vitro anticancer SRB assay, SW-620. In kind it is cell-based, human. Particulars: SW-620, Colon Cancer. On the procedure: as §1, §2
Another test has as its system SF-539. In words: NCI in vitro anticancer SRB assay, SF-539. In kind it is cell-based, human. The following applies: SF-539, CNS Cancer. As for the experimental part:
as §1, §2

Another test deals with U251. In words: NCI in vitro anticancer SRB assay, U251. In kind it is cell-based, human. Particulars: U251, CNS Cancer. On the procedure: as §1, §2
A further test concerns MALME-3M. In words: NCI in vitro anticancer SRB assay, MALME-3M. In kind it is cell-based, human. Particulars: Melanoma. On the procedure: as §1, §2
In another test the test system is SK-MEL-28. In words: NCI in vitro anticancer SRB assay, SK-MEL-28. Format: cell-based, human. The following applies: SK-MEL-28, Melanoma. On the procedure: as §1, §2
The next test relates to SK-MEL-5. As to the kind of experiment: NCI in vitro anticancer SRB assay, SK-MEL-5. The following applies: SK-MEL-5, Melanoma. Format: cell-based, human. On the procedure:
as §1, §2

The test system of the next test is OVCAR-4. In words: NCI in vitro anticancer SRB assay, OVCAR-4. The following applies: OVCAR-4, Ovarian Cancer. In kind it is cell-based, human. On the procedure: as §1, §2
The next test relates to 786-0. In words: NCI in vitro anticancer SRB assay, 786-0. In kind it is cell-based, human. Particulars: 786-0, Renal Cancer. As for the experimental part:
as §1, §2

The next test concerns RXF 393. As to the kind of experiment: NCI in vitro anticancer SRB assay, RXF 393. In kind it is cell-based, human. Particulars: RXF 393, Renal Cancer. As for the experimental part: as §1, §2
In another test the test system is DU 145. As to the kind of experiment: NCI in vitro anticancer SRB assay, DU 145. Format: cell-based, human. The following applies: DU 145, Prostate Cancer. As for the experimental part:
as §1, §2

Another test concerns MCF7. As to the kind of experiment: NCI in vitro anticancer SRB assay, MCF7. Format: cell-based, human. Particulars: MCF7, Breast Cancer. As for the experimental part: as §1, §2
A further test has as its system MDA-MB-231/ATCC. As to the kind of experiment: NCI in vitro anticancer SRB assay, MDA-MB-231/ATCC. Format: cell-based, human. Particulars: Breast Cancer. As for the experimental part: as §1, §2
The subject of a further test is HS 578T. In words: NCI in vitro anticancer SRB assay, HS 578T. Format: cell-based, human. Particulars: Breast Cancer. On the procedure: as §1, §2
In test [2] the test system is T-47D. In words: NCI in vitro anticancer SRB assay, T-47D. In kind it is cell-based, human. The following applies: Breast Cancer. On the procedure:
as §1, §2

For a further test, the system named is BT-549. As to the kind of experiment: NCI in vitro anticancer SRB assay, BT-549. In kind it is cell-based, human. Particulars: BT-549, Breast Cancer. On the procedure: as §1, §2
The next test has as its system sixty human tumour cells. In words: In vitro cytotoxicity, mean graph midpoints over all cell lines. Format: cell-based. Particulars: mean graph midpoint. As for the experimental part:
as §1, §2

On to “2-{4-[4-(4-[4-(6-[4-methylpiperazino]-2-benzimidazolyl)phenoxy]butyl)piperazino]butyl}napthalimide [Compound 9a]”, for which the “% GI (percent growth inhibition)” value with T-47D [1] was 64%; in the test with OVCAR8, 77%; with HL-60, 84%; in the test on UO-31 it was 85%; in the test on SF-295, 71%.
For the substance “2-{4-[4-(6-morpholino-2-benzimidazolyl)phenoxy]butyl}naphthalimide [Compound 5b]”, the GI50 was 2970 nM in the test with K-562 (48 h drug exposure, SRB); 3250 nM in the test with K-562 (repeat test values); 12200 nM in the test on EKVX (48 h drug exposure, SRB); 25400 nM in the test with EKVX (repeat test values); 110 nM in the test on NCI-H322M (48 h drug exposure, SRB); 40700 nM in the test with NCI-H322M (repeat test values). The GI50 stood at 1760 nM with HCT-116; 1140 nM with KM12 (48 h drug exposure, SRB); 7250 nM in the test with KM12 (repeat test values); 3190 nM with SW-620 (48 h drug exposure, SRB); 4490 nM in the test on SW-620 (repeat test values); 1700 nM in the test with SF-539 (48 h drug exposure, SRB). The GI50 came out at 1600 nM with SF-539 (repeat test values); 1410 nM in the test with U251 (48 h drug exposure, SRB); 1660 nM with U251 (repeat test values); 90 nM with MALME-3M (48 h drug exposure, SRB); 3340 nM in the test on MALME-3M (repeat test values); 1300 nM with SK-MEL-28 (48 h drug exposure, SRB). The GI50 in the test with SK-MEL-28 (repeat test values) was found to be 1560 nM; in the test with SK-MEL-5 (48 h drug exposure, SRB) it was 1440 nM; in the test with SK-MEL-5 (repeat test values), 1770 nM; in the test with OVCAR-4 (48 h drug exposure, SRB), 1470 nM; with OVCAR-4 (repeat test values), 2210 nM; in the test with 786-0 (48 h drug exposure, SRB) it was 1210 nM. Besides, the GI50 in the test with 786-0 (repeat test values) was found to be 1370 nM; with RXF 393 (48 h drug exposure, SRB) it was 850 nM; in the test with RXF 393 (repeat test values) it was 340 nM; in the test with DU 145 (48 h drug exposure, SRB), 3270 nM; in the test with DU 145 (repeat test values), 4560 nM; in the test on MCF7 (48 h drug exposure, SRB), 3330 nM. Besides, the GI50 was found to be 2560 nM with MCF7 (repeat test values); 2510 nM in the test with MDA-MB-231/ATCC (48 h drug exposure, SRB); 4250 nM with MDA-MB-231/ATCC (repeat test values); 990 nM in the test on HS 578T (48 h drug exposure, SRB); 4680 nM in the test with HS 578T (repeat test values); 2200 nM in the test with T-47D [2] (48 h drug exposure, SRB). Besides, the GI50 with T-47D [2] (repeat test values) came out at 4320 nM; in the test on BT-549 (48 h drug exposure, SRB), 1450 nM; in the test on BT-549 (repeat test values), 1540 nM. Besides, the entries for the “Log LC50 MG MID” value in the test with sixty human tumour cells (log10 of drug concentration causing 50% cell death (−50%)) and with sixty human tumour cells (repeated test values) were −4.46 and −4.27, respectively. The “Log TGI MG MID” value is given as −4.94 in the test with sixty human tumour cells (log10 of drug concentration causing total cell growth inhibition (0% growth)) and −4.71 in the test on sixty human tumour cells (repeated test values). Also, the “Log GI50 MG MID” value in the test on sixty human tumour cells (log10 of drug molar concentration causing 50% cell growth inhibition) was −5.54; in the test on sixty human tumour cells (repeated test values) it was −5.35.
Consider “2-{4-[4-(4-[4-(6-morpholino-2-benzimidazolyl)phenoxy]butyl)piperazino]butyl}napthalimide [Compound 9b]”, for which the “% GI (percent growth inhibition)” value with T-47D [1] is 50%; in the test on OVCAR8 it was 78%; in the test on HL-60, 50%; in the test with UO-31, 68%; in the test on SF-295, 50%.
Turning to “2-{5-[4-(5-[4-(6-morpholino-2-benzimidazolyl)phenoxy]pentyl)piperazino]pentyl}napthalimide [Compound 9c]”, the “% GI (percent growth inhibition)” value in the test on T-47D [1] worked out at 99%; with OVCAR8, 89%; in the test on HL-60, 97%; in the test with UO-31, 96%; in the test with SF-295, 84%.
